Reference: publication PMC2893400 (Biomedical chromatography : BMC, 2010)

Legend:
[1] = Stability of stock solutions in methanol at 4°C; assay type: physicochemical; settings: stock solution in methanol stored at 4°C, up to 7 days
[2] = Stability post extraction, reconstituted in methanol at room temperature; assay type: physicochemical; settings: kept at room temperature

Degradation of stock solution [1]	Degradation reconstituted in methanol after recovery [2]	SMILES
no degradation after 7 days	no degradation	O=C(CCCN1CCCN(c2ccc(Cl)cc2)CC1)c1ccc(F)cc1 [DAL, 4-[4-(4-Chlorophenyl)-1,4-diazepan-1-yl]-1-(4-fluorophenyl) butan-1-one]
no degradation after 7 days	no degradation	O=C(CCCN1CC=C(n2c(=O)[nH]c3ccccc32)CC1)c1ccc(F)cc1 [DRO, droperidol]

SMILES	Degradation of stock solution [1]	Degradation reconstituted in methanol after recovery [2]
CC(C)C[C@H]1C(=O)N2CCC[C@H]2[C@]2(O)O[C@](NC(=O)[C@@H]3C=C4c5cccc6[nH]c(Br)c(c56)C[C@H]4N(C)C3)(C(C)C)C(=O)N12 [BCT, bromocriptine]	began to degrade significantly after 3 days	
